Measurements taken from patent US20240197588A1, “ANTIMICROBIAL COMPOSITION” (Conopco, Inc., d/b/a UNILEVER, priority 2021, published 2024).

Key:
[1] = Physical state of detackifying agent at room temperature; assay type: physicochemical
From the text: RT in Table 4 refers to room temperature.

[2] = Solubility of oil (detackifying agent) in 75/25 EtOH/Water; details: neat detackifying agent
From the text: (§1) Detackifying agents desirable for use in the antimicrobial composition disclosed herein must meet the following criteria: the detackifying agent must be liquid, the detackifying agent must be soluble in at least a 75/25 or higher ratio of ethanol to water (EtOH/Water), which is to be reflective of solubility in the final composition resulting in a clear (i.e., transparent) final antimicrobial composition, and the detackifying agent must have no solvency for water.

[3] = Water solubility in oil (solvency of detackifying agent for water); details: neat detackifying agent
From the text: as §1
Finally, the preferred detackifying agent must itself not have solvency for water such that during application and on drying as the ethanol and water evaporate, the water is also allowed to quickly evaporate leaving behind only the oil and any skin benefit actives/moisturizers if present.

CCCCC(CC)COC(=O)CC(O)C(=O)OCC(CC)CCCC (stereo not shown) [Diethyl hexyl malate]
Oil (liquid or solid at RT) [1]: Liquid

CCCCC(CC)COC(=O)CCCCCCCCC(=O)OCC(CC)CCCC (stereo not shown) [Diethyl hexyl sebacate]
Oil (liquid or solid at RT) [1]: Liquid

CCCCC(CC)COC(=O)CCCCC(=O)OCC(CC)CCCC (stereo not shown) [Diethylhexyl adipate]
Oil (liquid or solid at RT) [1]: Liquid
Solubility in 75/25 EtOH/Water [2]: <10%
Water solubility in detackifying agent [3]: No

CC(C)OC(=O)CCCCCCCCC(=O)OC(C)C [Diisopropyl sebacate]
Oil (liquid or solid at RT) [1]: Liquid

CC(C)OC(=O)CCCCC(=O)OC(C)C [Disopropyl adipate]
Oil (liquid or solid at RT) [1]: Liquid
Solubility in 75/25 EtOH/Water [2]: >30%
Water solubility in detackifying agent [3]: No

CC(C)CCCCCCCCCCCCCCCO [Isostearyl alcohol]
Oil (liquid or solid at RT) [1]: Liquid

CCCCCCCCCCCCOC(=O)C(C)O (stereo not shown) [Lauryl lactate]
Oil (liquid or solid at RT) [1]: Liquid
Solubility in 75/25 EtOH/Water [2]: >30%
Water solubility in detackifying agent [3]: No

Dicapryl maleate
Oil (liquid or solid at RT) [1]: Liquid
Solubility in 75/25 EtOH/Water [2]: <10%
Water solubility in detackifying agent [3]: No

PPG15 Stearyl ether
Oil (liquid or solid at RT) [1]: Liquid
Solubility in 75/25 EtOH/Water [2]: >30%
Water solubility in detackifying agent [3]: No
